{"source": "patent US9023876B2", "about": "“Compounds and methods for regulating integrins” (Adhaere Pharmaceuticals, Inc., priority 2010, dated 2015)", "key": {"integrin CD11b/CD18 [1]": {"biological_target": "T1, integrin CD11b/CD18 (Homo sapiens, UniProt P11215)", "T1 construct": "expressed in transfected cells; host or cells: K562", "assay": "K562 cell adhesion assay, K562 CD11b/CD18 cells on immobilized fibrinogen (Fg)", "assay_type": "cell-based", "protocol": "Cell adhesion assays with immobilized ligands were performed as previously described. Assays with all different K562 cell lines (K562, K562 CD11b/CD18 and K562 E320A) were performed in an identical fashion. Briefly, 384-well Highbind microtiter plates were coated with a 30 μL solution of ligand in Phosphate Buffered Saline, pH 7.4 containing 1 mM each of Ca^2+ and Mg^2+ ions (PBS^++) overnight at 4° C. Ligand Fg was coated at a concentration of […] and iC3b at […]. Heterodimer specific mAb IB4 (ascites) was coated at a 1:100 dilution. Subsequently, the non-specific sites in the wells were blocked by incubation with 1% non-fat milk in Tris Buffered Saline (TBS), pH 7.4, at room temperature for 1 h, except for the neutrophil assay, where the wells were blocked with TBS containing 1% gelatin. Next, the wells were washed three times with TBS. K562 cells were suspended in the assay buffer (TBS containing 1 mM each of Ca^2+ and Mg^2+ ions (TBS^++)) and were transferred to the ligand-coated wells (30,000 cells/well). Stock solution of the leukadherin family of small molecule agonists was prepared by dissolving the compounds in DMSO at a concentration of 2-10 mM. Final concentration of DMSO in the assay was approximately 1%. […] Cells remaining adherent were fixed using formaldehyde and were quantitated using imaging microscopy, as previously described. […]"}, "mice": {"system": "mice", "assay": "Anti-glomerular basement membrane (anti-GBM) nephritis model", "assay_type": "in vivo, mouse", "excerpt": "To determine whether CD11b/CD18 agonists have any therapeutic advantages over antagonists, we performed a head-to-head comparison between a well-characterized CD11b/CD18 antagonist (anti-CD11b antibody M1/70, [82]) and LA1 using an established mouse model of kidney disease, the anti-glomerular basement membrane (anti-GBM) nephritis. This model is characterized by neutrophil infiltration that mediates urinary protein loss, including albumin. In line with an important role for CD11b in this disease, CD11b^−/− mice and anti-CD11b mAb treated rats show decreased leukocyte infiltration and a protection from proteinuria. Here, induction of disease in mice led to peak influx of neutrophils and maximal proteinuria at day 3."}, "K562 CD11b/CD18 cells": {"system": "K562 CD11b/CD18 cells", "assay": "Cell viability assay (MTS)", "assay_type": "cell-based", "details": "24 h; concentrations as high as 50 μM", "protocol": "Cell viability assay was performed as described. Briefly, K562 CD11b/CD18 cells (10,000/well) were incubated in 96 well plates (Corning, Corning, N.Y.) with increasing amounts of indicated compound for 24 h. The number of viable cells after 24 h was determined by using MTS reagent according to manufacturers protocol (Promega, Madison, Wis.) and using Spectramax M5 spectrophotometer (Molecular Devices) for reading of the assay plates. Data presented is representative of at least two independent experiments."}, "integrin CD11b/CD18 [2]": {"biological_target": "T1, integrin CD11b/CD18", "assay": "Flow cytometry, binding of activation sensitive mAb24 to K562 CD11b/CD18 cells", "assay_type": "cell-based", "protocol": "Flow cytometric analysis of K562 cells for integrin CD11b/CD18 cell surface expression was performed using published protocols. Briefly, cells were suspended in the assay buffer (TBS containing 1 mM each of Ca^2+ and Mg^2+ ions (TBS^++) and 0.1% BSA). […] Subsequently, the cells were washed three times with the assay buffer and incubated with goat anti-mouse-APC (1 mg/ml, Invitrogen) for 20 min at 4° C. Cells were washed twice with the assay buffer and analyzed using FACSCaliber flow cytometer (BD Biosciences, CA), counting at least 10,000 events. Data was analyzed using the CellQuest software (BD Biosciences). Assays were performed in triplicate and the data shown is from one of at least three independent experiments.\nTo identify binding site of LA1-3, which are predicted to bind the ligand-binding αA (or α1) domain in CD11b/CD18 [33, 39, 76], we generated K562 cells stably expressing mutant integrin CD11bE320A/CD18 (K562 E320A). The highly conserved residue E320 in the linker following the activation-sensitive α7-helix in the CD11b A-domain (αA-domain) acts as an endogenous ligand of the CD18 vWFA-domain (βA- or I-domain). The E320A mutation abolishes agonist Mn^2+-ion mediated increase in ligand-binding by CD11b/CD18. However, stabilization of αA in a high-affinity conformation by additional activating mutations overcomes this deficit and induces ligand binding in the E320A mutant. […]"}, "[3]": {"biological_target": "T2, mutant integrin CD11bE320A/CD18 (Homo sapiens, UniProt P11215, E336A)", "T2 construct": "expressed in transfected cells; host or cells: K562", "assay": "Adhesion of K562 E320A cells to immobilized Fg", "assay_type": "cell-based", "protocol": "K562 cells (ATCC) stably transfected with wild-type integrin CD11b/CD18 (K562 CD11b/CD18) have been described previously. Mutant CD11bE320A has been described previously. K562 cells stably transfected with mutant integrin CD11bE320A/CD18 (K562 E320A) were generated according to literature protocols. All cell lines were maintained in Iscove's Modified Dulbecco's Medium (IMDM) supplemented with 10% heat-inactivated fetal bovine serum, 50 IU/ml penicillin and streptomycin and 0.5 mg/ml G418.\nCell adhesion assays with immobilized ligands were performed as previously described. Assays with all different K562 cell lines (K562, K562 CD11b/CD18 and K562 E320A) were performed in an identical fashion. Briefly, 384-well Highbind microtiter plates were coated with a 30 μL solution of ligand in Phosphate Buffered Saline, pH 7.4 containing 1 mM each of Ca^2+ and Mg^2+ ions (PBS^++) overnight at 4° C. Ligand Fg was coated at a concentration of […] and iC3b at […]. Heterodimer specific mAb IB4 (ascites) was coated at a 1:100 dilution. […] Cells remaining adherent were fixed using formaldehyde and were quantitated using imaging microscopy, as previously described. […]"}}, "data": [{"compound": "O=C(O)c1ccc(-c2ccc(/C=C3\\SC(=S)N(Cc4ccccc4)C3=O)o2)cc1", "note": "[LA1]", "values": [{"measurement": "EC50", "setting": "integrin CD11b/CD18 [1]; K562 CD11b/CD18 cells, immobilized Fg, read-out: EC50 (effective concentration for 50% increase in adhesion), CD11b/CD18 dependent cell adhesion to Fg", "value": 4, "unit": "µM"}, {"measurement": "relative affinity for CD11b/CD18 compared with IMB-10", "setting": "integrin CD11b/CD18 [1]; cell-based adhesion assay", "value": "higher affinity"}, {"measurement": "number of infiltrated neutrophils (neutrophil influx)", "setting": "mice", "value": "significant and maximal decrease"}, {"measurement": "proteinuria", "setting": "mice", "value": "significant and maximal decrease"}, {"measurement": "in vitro cytotoxicity to K562 cells", "setting": "K562 CD11b/CD18 cells", "value": "no cytotoxicity"}, {"measurement": "binding of activation sensitive mAb24 to K562 CD11b/CD18 cells", "setting": "integrin CD11b/CD18 [2]", "value": "increase"}, {"measurement": "binding of K562 E320A to Fg", "setting": "[3]", "value": "selectively increased"}]}]}
